Measured values as given in PubChem BioAssay (NCI).
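These data come from cells grown in 96-well plates and exposed to compound for 48 hours at five concentrations. Here, GI50 denotes the concentration required for 50% inhibition of growth. Definition used: TGI = concentration required for complete inhibition of growth.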

What was measured:
Experiment in all cases: NCI anticancer screen, dose series, 48 h
[1] = system: EKVX NSCLC
[2] = system: K-562 leukemia
[3] = system: LOX IMVI melanoma
[4] = system: MOLT-4 leukemia
[5] = system: NCI-H23 lung
[6] = system: OVCAR-4 ovarian
[7] = system: SF-268 CNS
[8] = system: SF-295 CNS
[9] = system: SK-OV-3 ovarian
[10] = system: BT-549 breast

Compound | TGI [1] [µM] | TGI [2] [µM] | TGI [3] [µM] | TGI [4] [µM] | TGI [5] [µM] | TGI [6] [µM] | TGI [7] [µM] | TGI [8] [µM] | TGI [9] [µM] | GI50 [1] [µM] | GI50 [2] [µM] | GI50 [3] [µM] | GI50 [4] [µM] | GI50 [5] [µM] | GI50 [6] [µM] | GI50 [7] [µM] | GI50 [8] [µM] | GI50 [9] [µM] | GI50 [10] [µM] | TGI [10] [µM]
CO[C@@H]1C=C[C@@]23c4cc5c(cc4CN(C[C@@H]2O)[C@H]3C1)OCO5 | > 100 | > 100 | 80.9 | 69.5 | > 100 | 18.8 | > 100 | > 100 | > 100 | – | – | – | – | – | – | – | – | – | – | –
Cc1cccc(-n2c(N)c(-c3nc4ccccc4[nH]3)sc2=S)c1 | 82.7 | > 100 | 58 | 54.6 | > 100 | > 100 | > 100 | 68.1 | 91.7 | – | – | – | – | – | – | – | – | – | – | –
N/N=C1\C(=O)N(Cc2ccccc2)C(=O)C1C(=O)NCc1ccccc1 (stereo not given) | > 100 | > 100 | – | > 100 | > 100 | > 100 | > 100 | > 100 | – | – | – | – | – | – | – | – | – | – | – | –
COC(=O)c1ccccc1N(C(=O)c1ccccc1)c1ccccc1C | > 100 | > 100 | > 100 | 54.6 | 79.3 | > 100 | > 100 | > 100 | 69.1 | – | – | – | – | – | – | – | – | – | – | –
COc1cc(-c2nccc3cc(OC)c(OC)cc23)ccc1O | > 100 | > 100 | > 100 | 91.8 | > 100 | > 100 | – | > 100 | > 100 | – | – | – | – | – | – | – | – | – | – | –
COc1ccc(/C(=N\NC(=O)NN)C(c2ccc(OC)cc2)C2(O)C(=O)Nc3c(Cl)cc(Cl)cc32)cc1 (stereo not given) | > 100 | – | > 100 | > 100 | > 100 | > 100 | > 100 | > 100 | – | – | – | – | – | – | – | – | – | – | – | –
N#CC12CCC1C1CCCCC12N1CCSCC1 (stereo not given) | – | > 100 | – | > 100 | > 10 | > 10 | – | > 100 | – | – | – | – | – | – | – | – | – | – | – | –
Cc1n[nH]c(=S)n(C)c1=S | > 100 | > 100 | > 100 | > 100 | > 100 | > 100 | > 100 | > 100 | > 100 | – | – | – | – | – | – | – | – | – | – | –
N#CC(C(=O)C(=O)Nc1ccccc1)c1ccccc1 (stereo not given) | > 100 | > 100 | > 100 | > 100 | > 100 | – | > 100 | > 100 | > 100 | – | – | – | – | – | – | – | – | – | – | –
Cc1ccc(-c2nc3ccccc3c(=O)n2NCC2(O)OCC(O)C(O)C2O)cc1 (stereo not given) | > 100 | > 100 | > 100 | > 100 | > 100 | > 100 | > 100 | > 100 | > 100 | – | – | – | – | – | – | – | – | – | – | –
CCOC(=O)C(=O)Nc1nc2c(OCC)cccc2s1 | > 100 | > 100 | > 100 | > 100 | > 100 | > 100 | > 100 | > 100 | > 100 | – | – | – | – | – | – | – | – | – | – | –
C=C(CO)CC(O)c1cc(OC)ccc1OC (stereo not given) | > 100 | > 100 | > 100 | > 100 | – | > 100 | > 100 | > 100 | > 100 | – | – | – | – | – | – | – | – | – | – | –
N#Cc1ccc(Cc2ccccn2)cc1Cl | > 100 | > 100 | > 100 | > 100 | > 100 | > 100 | > 100 | > 100 | > 100 | – | – | – | – | – | – | – | – | – | – | –
Oc1ccc(Nc2ccc3ccccc3c2)cc1 | 20.5 | 15.9 | 21.9 | 32.1 | 55.3 | > 100 | 29.4 | 6.29 | > 100 | 3.66 | 2.96 | 8.25 | 2.75 | 10.9 | 8.64 | 4.94 | 2.13 | 17.2 | – | –
CCC[CH2][Sn]([CH2]CCC)([O]c1cccc2cccnc12)[O]c1cccc2cccnc12 | 1.22 | 0.523 | 0.313 | 0.377 | 0.52 | 0.46 | 0.575 | 0.612 | 3.33 | 0.34 | 0.0973 | 0.162 | 0.159 | 0.169 | 0.229 | 0.203 | 0.247 | 1.91 | – | –
O=C(Nc1cccc2c1C(=O)c1c(NC(=O)c3ccccc3)ccc(Nc3cccc4c3C(=O)c3ccccc3C4=O)c1C2=O)c1ccccc1 | > 100 | > 100 | – | > 100 | – | > 100 | > 100 | – | > 100 | – | – | – | – | – | – | – | – | – | – | –
O=C(/C=C\c1cccc2ccccc12)c1ccc(F)cc1 | 35.2 | 33.2 | – | 74.2 | 45.1 | 36.9 | 30.8 | 41.1 | 58.3 | – | – | – | – | – | – | – | – | – | – | –

Compound | TGI [1] [µM] | TGI [2] [µM] | TGI [3] [µM] | TGI [4] [µM] | TGI [5] [µM] | TGI [6] [µM] | TGI [7] [µM] | TGI [8] [µM] | TGI [9] [µM] | GI50 [1] [µM] | GI50 [2] [µM] | GI50 [3] [µM] | GI50 [4] [µM] | GI50 [5] [µM] | GI50 [6] [µM] | GI50 [7] [µM] | GI50 [8] [µM] | GI50 [9] [µM] | GI50 [10] [µM] | TGI [10] [µM]
CCOC(=O)C1SC(=Nc2ccc(OC)c(OC)c2)N=C1C (stereo not given) | > 100 | > 100 | > 100 | – | > 100 | > 100 | > 100 | > 100 | > 100 | – | – | – | – | – | – | – | – | – | – | –
NC(=NCc1ccccc1)C(N=Nc1ccccc1)C(=O)NCc1ccccc1 (stereo not given) | 23.5 | – | 24.3 | > 100 | 21.9 | 45.1 | 6.44 | 5.16 | 47.7 | 4.49 | – | 8.36 | 5.53 | 5 | 18.5 | 2.53 | 1.9 | 20.1 | – | –
N#CC(/C(CCC(=O)Nc1ccc(Cl)cc1)=N/NC(=O)c1cc2ccccc2cc1O)c1ccccc1 (stereo not given) | > 100 | – | 73.1 | 94.9 | > 100 | > 100 | > 100 | > 100 | – | – | – | – | – | – | – | – | – | – | – | –
N.N.N.N.N.NC(=O)[O-].[Co+3].[I-] | > 100 | > 100 | > 100 | > 100 | > 100 | > 100 | > 100 | > 100 | > 100 | > 100 | > 100 | > 100 | > 100 | > 100 | > 100 | > 100 | > 100 | > 100 | – | –
O=C1C(Cl)=C(Nc2ccc(Nc3ccccc3)c(NC3=C(Cl)C(=O)c4ccccc4C3=O)c2)C(=O)c2ccccc21 | 96.4 | – | > 100 | – | > 100 | – | 18.8 | 19.9 | – | 11.4 | – | 4.12 | – | 19.6 | – | 3.63 | 3.79 | – | – | –
CC(C)N(O)C(=N)c1ccccc1 | > 100 | – | > 100 | – | > 100 | > 100 | > 100 | > 100 | – | – | – | – | – | – | – | – | – | – | – | –
COc1cc(OC)c(C(=O)c2cccs2)cc1N | > 100 | > 100 | > 100 | > 100 | > 100 | > 100 | > 100 | > 100 | > 100 | – | – | – | – | – | – | – | – | – | – | –
CC(CC(=O)N1C(=O)C(C)(C)[C@@H](O)[C@H]1CC(C)C(Cl)(Cl)Cl)C(Cl)(Cl)Cl (stereo not given in full) | > 100 | > 100 | > 100 | > 100 | – | > 100 | > 100 | > 100 | > 100 | – | – | – | – | – | – | – | – | – | – | –
CC1(C)S[C@@H]2[C@H](N3C(=O)c4ccccc4C3=O)CN2[C@H]1NC(=O)N[C@@H]1N2C[C@@H](N3C(=O)c4ccccc4C3=O)[C@H]2SC1(C)C | – | > 100 | > 100 | > 100 | > 100 | > 100 | 81.3 | > 100 | > 100 | – | – | – | – | – | – | – | – | – | – | –
O=C/C1=C/C2=Cc3ccccc3C=C(/C=C(/C=O)C1)C2 | > 100 | > 100 | > 100 | 90.9 | > 100 | > 100 | > 100 | > 100 | – | – | – | – | – | – | – | – | – | – | – | –
CCC(=O)N1C(=O)OCC1C(C)C (stereo not given) | > 100 | > 100 | > 100 | > 100 | > 100 | > 100 | > 100 | > 100 | > 100 | – | – | – | – | – | – | – | – | – | – | –
O=C1C(=O)N(c2ccc(Cl)cc2)C(=O)C(=O)C1c1nc2ccccc2o1 | > 100 | > 100 | > 100 | > 100 | > 100 | > 100 | > 100 | > 100 | > 100 | – | – | – | – | – | – | – | – | – | – | –
CCCCCCCCCCCCCCCC1=NCCN1 | 4.39 | – | – | – | 4.78 | 6.89 | – | 3.95 | 4.85 | 1.86 | – | – | – | 2.04 | 2.38 | – | 1.97 | 2.23 | 6.39 | 29.7
O=S(=O)([O-])c1ccc(N=Cc2ccccc2[O-])cc1.O=S(=O)([O-])c1ccc(N=Cc2ccccc2[O-])cc1.[Co+2] | > 100 | > 100 | – | > 100 | > 100 | – | 79.3 | > 100 | > 100 | 69.2 | > 100 | – | 21.7 | > 100 | – | 20.7 | > 100 | 36.6 | – | –
COc1cc(/C=C(\NC(=O)c2ccccc2)c2nc3ccc4c(c3[nH]2)C(=O)c2ccccc2C4=O)cc(OC)c1OC | > 100 | > 100 | > 100 | 43 | > 100 | > 100 | > 100 | > 100 | 95.6 | – | – | – | – | – | – | – | – | – | – | –
CN1CN(C2OC(CO)C(O)C2O)c2nc(N)[nH]c(=O)c21 (stereo not given) | > 100 | > 100 | – | > 100 | > 100 | > 100 | > 100 | > 100 | > 100 | – | – | – | – | – | – | – | – | – | – | –
